In US9757375B2, “Compounds that inhibit human DNA ligases and methods of treating cancer” (University of Maryland, Baltimore, priority 2007, dated 2017):

Experiments:
MCF10A cells = assay: Screen for potentiation of DNA damaging agents (MMS, camptothecin, cis-platinum, 3 aminobenzamide, ionizing radiation); type: cell-based, human; settings: for IC50 ratios of non- and 3-AB treated cells MCF10A: compound alone vs combination with 3-AB (2 mM); for IC50 ratios of non- and 3-AB treated cells MCF10A / MMS: Ratios of IC50 MCF10A: 1 = no sensitization; for Radiosensitizers: IC50 ratios MCF10A: ionizing radiation; for MMS: Ratios of IC50 MCF10A: compound alone vs combination with MMS (100 μM); for % growth inhibition MCF10A [2 Gy] 5-15 uM: with 2 Gy ionizing radiation, tick mark only
Method in brief: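 HCT116 colon cancer and MCF10A breast epithelial cells received compounds at 15 μM or 50 μM one day after plating; for ionizing radiation, cells were pre-incubated 1 h with 50 μM compound before 2 Gy. After 3 days, cells were lysed with Igepal CA-630 plus SYBR green, and DNA fluorescence served as the proliferation read-out.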

HeLa cell extract [1] = assay: Cell extract assay with 5′-flap substrate (DNA replication and long patch base excision repair); type: biochemical, human; settings: for Cell Extract 100 (μM): BER inhibited: kind of BER not given; for final ligation step of the flap substrate repair reaction / flap removal by FEN-1: HeLa extract, 100 μmol/L (also 25 μM in the source), FIG. 4A
Procedure: (§1) Extracts were prepared from human cervical cancer HeLa cells as described previously (27, 31). For base excision repair (BER) assays, the extraction buffer contained 100 mmol/L of KCl, whereas for nonhomologous end-joining (NHEJ) assays, extraction buffer contained 400 mmol/L of KCl. Where indicated, DNA ligases were immunodepleted from the extracts as described (32) using protein A or G Sepharose beads (GE Healthcare) and anti-Lig1, anti-LigIII (GeneTex), or anti-LigIV (ABCAM) antibodies. Depletion was confirmed by immunoblotting.
(§2) A labeled 5′-flap substrate (0.1 pmol; (31)) was incubated with 20 μg of extract in the absence or presence of ligase inhibitors (100 μmol/L) at 25° C. for 5 min in ligation buffer (final volume, 50 μL). For short patch BER, a linear duplex containing a single uracil residue was preincised by treatment with uracil DNA glycosylase and APE1 (both from NEB) to generate a strand break with 3′ hydroxyl and 5′ deoxyribose phosphate termini. Reactions (50 μL) containing 0.3 pmol of the incised DNA substrate, 10 μCi of [α^32P]dTTP, and 20 μg of extract either in the absence or presence of ligase inhibitors (100 μmol/L) were incubated at 25° C. for 2 min in ligation buffer. After separation by denaturing polyacrylamide gel electrophoresis, labeled oligonucleotides were detected in the dried gel by phosphorImager analysis (Molecular Dynamics).
Next we used published cell extract assays (16,27,28) that measure different DNA replication and repair transactions to confirm the specificity of the DNA ligase inhibitors. FIG. 4A, the flap substrate (0.1 pmol) was incubated with cell extract (20 μg) in the absence (lane 2, Mock) or presence of 100 μmol/L, of L189 (lane 3), L67 (lane 4), or L82 (lane 5). hLigI (lane 6, I-dp) and hLigIIIa (lane 7, III-dp) were immunodepleted from the cell extracts prior to incubation with the DNA substrate. Lane 1, DNA substrate alone (Sub). The positions of the DNA substrate (24-mer), cleaved product (18-mer), and fully repaired product (43-mer). The flap substrate shown in FIG. 4A corresponds to an intermediate generated on the lagging strand during DNA replication and in the long patch subpathway of base excision repair. Previously it has been shown that DNA ligase I completes these two DNA transactions after removal of the flap by FEN-1 (16,28). A cell extract from the human cervical cancer cell line HeLa was incubated with the indicated labeled flap substrate that mimics a common intermediate in DNA replication and long patch base excision repair in the absence or presence of Compounds 67, 82, 184 and 189 (25 μM). After separation by denaturing gel electrophoresis, labeled fragments corresponding to the DNA substrate, cleaved product and fully repaired product were detected by phosphorimaging (28).

HeLa cell extract [2] = assay: Cell extract assay of short patch base excision repair (incised AP site); type: biochemical, human; settings: 100 μmol/L (also 25 μM in the source), FIG. 4B
Procedure: as §1, §2
A natural AP site within a linear DNA molecule (FIG. 4B) is repaired primarily by short patch base excision repair that is completed by DNA ligase 111 (15). FIG. 4B, the linear DNA substrate with an incised AP site (0.3 pmol) was incubated with a cell extract (20 μg) and [a32P]dTTP in the absence (lane 1, Mock) or presence of 100 μmol/L of L189 (lane 2), L67 (lane 3), or L82 (lane 4). hLigI (lane 5, I-dp) and hLigIIIα (lane 6, III-dp) were immunodepleted from the cell extracts prior to incubation with the DNA substrate. […] After separation by denaturing gel electrophoresis, labeled fragments corresponding to a single nucleotide insertion and fully repaired product were detected by phosphorimaging (16). […]

**Q.** Which results are given for O=C(O)CSc1cc(Cl)c2nonc2c1[N+](=O)[O-] [Compound 64]?
**A.** IC50 ratios of non- and 3-AB treated cells MCF10A (MCF10A cells): 2; Radiosensitizers: IC50 ratios MCF10A (MCF10A cells): 1.2

**Q.** Cc1c(Br)cc(NCC(=O)N/N=C\c2cc([N+](=O)[O-])ccc2O)cc1Br [Compound 67] was tested. Which “IC50 ratios of non- and 3-AB treated cells MCF10A” value (MCF10A cells) did it give?
**A.** Its value is 1.7.

**Q.** What about the “MMS: Ratios of IC50 MCF10A” value (MCF10A cells) of the same compound?
**A.** The value was 1.2.

**Q.** And the “% growth inhibition MCF10A [2 Gy] 5-15 uM” value (MCF10A cells)?
**A.** Its value is “✓”.

**Q.** What about the “Cell Extract 100 (μM): BER inhibited” value (HeLa cell extract [1]) of the same compound?
**A.** The value was “BER”.

**Q.** What about the “final ligation step of the flap substrate repair reaction” value (“final ligation step” below) (HeLa cell extract [1]) of the same compound?
**A.** Its value is “inhibited the final ligation step of the repair reaction”.

**Q.** What about the “flap removal by FEN-1” value (HeLa cell extract [1]) of the same compound?
**A.** The value was “had no effect on flap removal by FEN-1”.

**Q.** And the “repair of the natural AP site (short patch base excision repair)” value (shortened to “repair of the natural AP site”) (HeLa cell extract [2])?
**A.** Its value is “reduce repair of the natural AP site”.

**Q.** With O=c1[nH]ncc(N/N=C\c2ccc(O)c([N+](=O)[O-])c2)c1Cl [Compound 82] as the compound, how does the “Cell Extract 100 (μM): BER inhibited” value (HeLa cell extract [1]) read?
**A.** The value was “BER”.

**Q.** What about the “final ligation step” value (HeLa cell extract [1]) of the same compound?
**A.** The value was “inhibited the final ligation step of the repair reaction”.

**Q.** What about the “flap removal by FEN-1” value (HeLa cell extract [1]) of the same compound?
**A.** The value was “had no effect on flap removal by FEN-1”.

**Q.** What about the “repair of the natural AP site” value (HeLa cell extract [2]) of the same compound?
**A.** The value was “has no effect”.

**Q.** With O=C(Cn1cnc([N+](=O)[O-])n1)N/N=C/c1ccc(O)cc1O [Compound 151] as the compound, how does the “MMS: Ratios of IC50 MCF10A” value (MCF10A cells) read?
**A.** The value was 1.8.

**Q.** And the “Radiosensitizers: IC50 ratios MCF10A” value (MCF10A cells)?
**A.** Its value is 1.

**Q.** What about the “% growth inhibition MCF10A [2 Gy] 5-15 uM” value (MCF10A cells) of the same compound?
**A.** The value was “✓”.

**Q.** And the “Cell Extract 100 (μM): BER inhibited” value (HeLa cell extract [1])?
**A.** Its value is “BER”.

**Q.** With O=C1Nc2ccccc2Oc2cc([N+](=O)[O-])cc([N+](=O)[O-])c21 [Compound 180] as the compound, how does the “MMS: Ratios of IC50 MCF10A” value (MCF10A cells) read?
**A.** Its value is 1.

**Q.** How did the “Cell Extract 100 (μM): BER inhibited” value (HeLa cell extract [1]) turn out when Nc1nc(S)nc(O)c1/N=C/c1ccccc1 [Compound 189] was run?
**A.** Its value is “BER”.

**Q.** And the “final ligation step” value (HeLa cell extract [1])?
**A.** The value was “inhibited the final ligation step of the repair reaction”.

**Q.** And the “flap removal by FEN-1” value (HeLa cell extract [1])?
**A.** Its value is “had no effect on flap removal by FEN-1”.

**Q.** What about the “repair of the natural AP site” value (HeLa cell extract [2]) of the same compound?
**A.** Its value is “reduce repair of the natural AP site”.

**Q.** What does the source list for O=C(c1ccc(O)cc1)c1ccccc1O [Compound 200]?
**A.** IC50 ratios of non- and 3-AB treated cells MCF10A (MCF10A cells): ID (1.2); MMS: Ratios of IC50 MCF10A (MCF10A cells): ID (1)
